According to patent US20250353863A1, “TRICYCLIC SPIROLACTAM COMPOUNDS WITH ANTIMYCOBACTERIAL ACTIVITY” (priority 2022, published 2025):
pIC50: −log10 of the molar value. ≈ marks a conversion by molar mass, not a printed value. Like-named read-outs stand apart in the source and are kept apart here.

What was measured:
[1] = target: purified Ndh (Mtb recombinant MBP tagged Ndh-2 enzyme, MBP-Ndh) (Mycobacterium tuberculosis (strain ATCC 25618 / H37Rv), UniProt P95160); test: Biochemical evaluation of MBP-Ndh inhibition (NADH oxidation with menadione); details: for IC50: NADH 500 μM, menadione 100 μM, read-out: IC50 (μM) purified Ndh
[2] = system: Mtb H37Rv-WT; test: MIC by resazurin microtiter assay (REMA) against Mtb; type: cell-based; details: Mycobacterium tuberculosis
[3] = system: M. smegmatis; test: MIC analysis of non-Mtb mycobacteria; type: cell-based; details: Mycolicibacterium smegmatis, 48 h; 2 days incubation
[4] = 144 h, REMA, 37° C., 6 days, read-out: MIC (μM) H37Rv-WT
[5] = 144 h, read-out: MIC (μM) H37Rv-WT
[6] = REMA, read-out: MIC M. tuberculosis

Chain of purified Ndh (Mtb recombinant MBP tagged Ndh-2 enzyme, MBP-Ndh) (P95160 whole entry, looked up): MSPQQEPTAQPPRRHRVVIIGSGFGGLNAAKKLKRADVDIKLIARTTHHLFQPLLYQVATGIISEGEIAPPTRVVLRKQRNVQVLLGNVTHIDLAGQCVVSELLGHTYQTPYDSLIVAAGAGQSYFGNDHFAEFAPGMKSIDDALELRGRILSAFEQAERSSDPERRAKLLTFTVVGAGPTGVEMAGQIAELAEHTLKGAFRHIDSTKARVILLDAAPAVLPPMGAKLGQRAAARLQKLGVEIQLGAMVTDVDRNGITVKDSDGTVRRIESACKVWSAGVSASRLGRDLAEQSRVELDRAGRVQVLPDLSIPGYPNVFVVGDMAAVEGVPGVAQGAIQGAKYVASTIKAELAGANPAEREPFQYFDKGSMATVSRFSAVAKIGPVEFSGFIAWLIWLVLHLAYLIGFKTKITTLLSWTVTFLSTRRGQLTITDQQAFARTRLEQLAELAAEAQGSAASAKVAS

| Structure (SMILES) | IC50 [1] [µM] | MIC [2, 4] [µM] | further results |
| --- | --- | --- | --- |
| CC(C)(C)[C@H]1CO[C@]23CCN(Cc4ccccc4)C[C@H]2CCC(=O)N13 [(3S,7aR,11aR)-9-benzyl-3-tert-butyl-2,3,6,7,7a,8,10,11-octahydrooxazolo[2,3-j][1,6]naphthyridin-5-one] | > 1 | > 10 |  |
| CC(C)[C@H]1CO[C@]23CCN(Cc4ccc(C(F)(F)F)cn4)C[C@H]2CCC(=O)N13 [(3S,7aR,11aR)-3-isopropyl-9-[[5-(trifluoromethyl)-2-pyridyl]methyl]-2,3,6,7,7a,8,10,11-octahydrooxazolo[2,3-j][1,6]naphthyridin-5-one] | 0.1 to 1 | < 1 |  |
| CC(C)[C@H]1CO[C@]23CCN(CCc4ccc(C(F)(F)F)cc4)C[C@H]2CCC(=O)N13 | 0.1 to 1 | < 1 |  |
| CC(C)[C@H]1CO[C@]23CCN(c4ccccc4)C[C@H]2CCC(=O)N13 [(3S,7aR,11aR)-3-isopropyl-9-phenyl-2,3,6,7,7a,8,10,11-octahydrooxazolo[2,3-j][1,6]naphthyridin-5-one] | 0.1 to 1 | 1 to 10 (≈ 0.314 to 3.14 µg/mL) |  |
| COc1ccc(CN2CC[C@]34OC[C@H](C(C)C)N3C(=O)CC[C@@H]4C2)cc1 [(3S,7aR,11aR)-3-isopropyl-9-[(4-methoxyphenyl)methyl]-2,3,6,7,7a,8,10,11-octahydrooxazolo[2,3-j][1,6]naphthyridin-5-one] | 0.1 to 1 | 1 to 10 (≈ 0.358 to 3.58 µg/mL) |  |
| CC(C)[C@H]1CO[C@]23CCN(Cc4ccccn4)C[C@H]2CCC(=O)N13 |  |  | pIC50 [1]: 6.00 to 7.00; MIC [2, 5]: 1 to 10 µM (≈ 0.329 to 3.29 µg/mL) |
| CC(C)[C@H]1CO[C@]23CCN(C(=O)OCc4ccccc4)C[C@H]2CCC(=O)N13 [benzyl (3S,7aR,11aR)-3-isopropyl-5-oxo-2,3,6,7,7a,8,10,11-octahydrooxazolo[2,3-j][1,6]naphthyridine-9-carboxylate] | 0.1 to 1 | 1 to 10 (≈ 0.372 to 3.72 µg/mL) |  |
| CC(C)[C@H]1CO[C@]23CCN(Cc4cccnc4)C[C@H]2CCC(=O)N13 [(3S,7aR,11aR)-3-isopropyl-9-(3-pyridylmethyl)-2,3,6,7,7a,8,10,11-octahydrooxazolo[2,3-j][1,6]naphthyridin-5-one] | > 1 |  | MIC [2, 5]: 1 to 10 µM (≈ 0.329 to 3.29 µg/mL) |
| CC(C)[C@H]1CO[C@]23CCN(CCc4ccccc4)C[C@H]2CCC(=O)N13 [(3S,7aR,11aR)-3-isopropyl-9-(2-phenylethyl)-2,3,6,7,7a,8,10,11-octahydrooxazolo[2,3-j][1,6]naphthyridin-5-one] | 0.1 to 1 | 1 to 10 (≈ 0.342 to 3.42 µg/mL) |  |
| CC(C)[C@H]1CO[C@]23CCN(Cc4cc5ccccc5n4C)C[C@H]2CCC(=O)N13 [Example 28, (3S,7aR,11aR)-3-isopropyl-9-[(1-methylindol-2-yl)methyl]-2,3,6,7,7a,8,10,11-ocathydrooxazolo[2,3-j][1,6]naphthyridin-5-one] |  |  | pIC50 ([1]; read-out: IC50 Ndh-M. tb): > 7.00; MIC [2, 6]: < 1 µM; MIC [3]: < 1 µM |
| CC(C)[C@H]1CO[C@]23CCN(Cc4ccc5ccccc5n4)C[C@H]2CCC(=O)N13 [(3S,7aR,11aR)-3-isopropyl-9-(2-quinolylmethyl)-2,3,6,7,7a,8,10,11-octahydrooxazolo[2,3-j][1,6]naphthyridin-5-one] | 0.1 to 1 | < 1 |  |
| CC(C)[C@H]1CO[C@]23CCN(CC4CCCCC4)C[C@H]2CCC(=O)N13 [(3S,7aR,11aR)-9-(cyclohexylmethyl)-3-isopropyl-2,3,6,7,7a,8,10,11-octahydrooxazolo[2,3-j][1,6]naphthyridin-5-one] | 0.1 to 1 | < 1 |  |
| CC(C)[C@H]1CO[C@]23CCN(C(=O)Cc4ccccc4)C[C@H]2CCC(=O)N13 [(3S,7aR,11aR)-3-isopropyl-9-(2-phenylacetyl)-2,3,6,7,7a,8,10,11-octahydrooxazolo[2,3-j][1,6]naphthyridin-5-one] | > 1 | > 10 |  |
| CC(C)[C@H]1CO[C@]23CCN(Cc4ccc(Cl)c(Cl)c4)C[C@H]2CCC(=O)N13 [Example 5, (3S,7aR,11aR)-9-[(3,4-dichlorophenyl)methyl]-3-isopropyl-2,3,6,7,7a,8,10,11-octahydrooxazolo[2,3-j][1,6]naphthyridin-5-one] |  |  | pIC50 ([1]; read-out: IC50 Ndh-M. tb): > 7.00; MIC [2, 6]: < 1 µM |
| CC(C)[C@H]1CO[C@]23CCN(Cc4ccc(C(F)(F)F)cc4)C[C@H]2OCC(=O)N13 [(1R,4S,9R)-4-isopropyl-11-[[4-(trifluoromethyl)phenyl]methyl]-2,8-dioxa-5,11-diazatricyclo[7.4.0.01,5]tridecan-6-one] |  | 1 to 10 (≈ 0.398 to 3.98 µg/mL) |  |
| CC(C)[C@H]1CO[C@]23CCN(Cc4ccc(C(F)(F)F)cc4)C(=O)[C@H]2CCC(=O)N13 [(3S,7aS,11aR)-3-isopropyl-9-[[4-(trifluoromethyl)phenyl]methyl]-3,6,7,7a,10,11-hexahydro-2H-oxazolo[2,3-j][1,6]naphthyridine-5,8-dione] |  | > 10 |  |
| CC(C)[C@H]1CO[C@]23CCN(Cc4ccc(N5CCC(c6ccc(OC(F)(F)F)cc6)CC5)cc4)C[C@H]2CCC(=O)N13 [(3S,7aR,11aR)-3-isopropyl-9-[[4-[4-[4-(trifluoromethoxy)phenyl]-1-piperidyl]phenyl]methyl]-2,3,6,7,7a,8,10,11-octahydrooxazolo[2,3-j][1,6]naphthyridin-5-one] |  | < 1 |  |

| Structure (SMILES) | IC50 [1] [µM] | MIC [2, 4] [µM] | further results |
| --- | --- | --- | --- |
| CC(C)[C@H]1CO[C@]23CC[C@H](N(Cc4ccc(C(F)(F)F)cc4)Cc4ccc(C(F)(F)F)cc4)C[C@H]2CCC(=O)N13 [Example 70, (3S,7aR,9S,11aR)-9-[bis[[4-(trifluoromethyl)phenyl]methyl]ami-no]-3-isopropyl-3,6,7,7a,8,9,10,11-octahydro-2H-oxazolo[2,3-j]quinolin-5-one] |  |  | MIC ([2]; 144 h, REMA, read-out: MIC M. tuberculosis): < 1 µM |
| CC(C)[C@H]1CO[C@]23CCN(Cc4ccc(-c5ccccc5)cc4)C[C@H]2CCC(=O)N13 [(3S,7aR,11aR)-3-isopropyl-9-[(4-phenylphenyl)methyl]-2,3,6,7,7a,8,10,11-octahydrooxazolo[2,3-j][1,6]naphthyridin-5-one] |  | < 1 |  |
| CC(C)[C@H]1CO[C@]23CCN(Cc4cc(C(F)(F)F)nc5ccccc45)C[C@H]2CCC(=O)N13 [(3S,7aR,11aR)-3-isopropyl-9-[[2-(trifluoromethyl)-4-quinolyl]methyl]-2,3,6,7,7a,8,10,11-octahydrooxazolo[2,3-j][1,6]naphthyridin-5-one] |  | < 1 |  |
| CC(C)[C@H]1CS[C@]23CCN(Cc4ccccc4)C[C@H]2CCC(=O)N13 [(3S,7aR,11aR)-9-benzyl-3-isopropyl-2,3,6,7,7a,8,10,11-octahydrothiazolo[2,3-j][1,6]naphthyridin-5-one] | > 1 |  |  |
| C=C[C@H]1CO[C@]23CCN(Cc4ccc(C(F)(F)F)cc4)C[C@H]2CCC(=O)N13 |  | > 10 |  |
| CC(C)[C@H]1CO[C@]23CCN(C4CCCCC4)C[C@H]2CCC(=O)N13 [(3S,7aR,11aR)-9-cyclohexyl-3-isopropyl-2,3,6,7,7a,8,10,11-octahydrooxazolo[2,3-j][1,6]naphthyridin-5-one] |  | > 10 |  |
| CC(C)[C@H]1CO[C@]23CCN(Cc4cc5ccccc5n4C)C[C@H]2CCC(=O)N13 |  | < 1 |  |
| CC(C)[C@H]1CO[C@]23CCN(C(=O)C(F)(F)c4ccc(C(F)(F)F)cc4)C[C@H]2CCC(=O)N13 [(3S,7aR,11aR)-9-[2,2-difluoro-2-[4-(trifluoromethyl)phenyl]acetyl]-3-isopropyl-2,3,6,7,7a,8,10,11-octahydrooxazolo[2,3-j][1,6]naphthyridin-5-one] |  | > 10 |  |
| CC(C)[C@H]1CO[C@]23CCN(Cc4ccc(C(F)(F)F)cc4)C[C@H]2CCC(=O)N13 [(3S,7aR,11aR)-3-isopropyl-9-[[4-(trifluoromethyl)phenyl]methyl]-2,3,6,7,7a,8,10,11-octahydrooxazolo[2,3-j][1,6]naphthyridin-5-one] |  | < 1 |  |
| CC(C)[C@H]1CO[C@]23CCN(Cc4cccc5cccnc45)C[C@H]2CCC(=O)N13 [(3S,7aR,11aR)-3-isopropyl-9-(8-quinolylmethyl)-2,3,6,7,7a,8,10,11-octahydrooxazolo[2,3-j][1,6]naphthyridin-5-one] | > 1 | 1 to 10 (≈ 0.38 to 3.8 µg/mL) |  |
| CC(C)[C@H]1CO[C@]23CCN(CC4CCCCO4)C[C@H]2CCC(=O)N13 (stereo partly drawn) [(3S,7aR,11aR)-3-isopropyl-9-(tetrahydropyran-2-ylmethyl)-2,3,6,7,7a,8,10,11-octahydrooxazolo[2,3-j][1,6]naphthyridin-5-one] |  | 1 to 10 (≈ 0.336 to 3.36 µg/mL) |  |
| CC(C)[C@H]1CO[C@]23CCN(S(=O)(=O)c4ccc(C(F)(F)F)cc4)C[C@H]2CCC(=O)N13 [(3S,7aR,11aR)-3-isopropyl-9-[4-(trifluoromethyl)phenyl]sulfonyl-2,3,6,7,7a,8,10,11-octahydrooxazolo[2,3-j][1,6]naphthyridin-5-one] | 0.1 to 1 | 1 to 10 (≈ 0.446 to 4.46 µg/mL) |  |
| CC(C)[C@H]1CO[C@]23CCN(Cc4ccc(C(F)(F)F)nc4)C[C@H]2CCC(=O)N13 [(3S,7aR,11aR)-3-isopropyl-9-[[6-(trifluoromethyl)-3-pyridyl]methyl]-2,3,6,7,7a,8,10,11-octahydrooxazolo[2,3-j][1,6]naphthyridin-5-one] | < 0.1 | < 1 |  |
| CC(C)[C@H]1CO[C@]23CCN(Cc4ccccc4)C[C@H]2CCC(=S)N13 [(3S,7aR,11aR)-9-benzyl-3-isopropyl-2,3,6,7,7a,8,10,11-octahydrooxazolo[2,3-j][1,6]naphthyridine-5-thione] | 0.1 to 1 | 1 to 10 (≈ 0.345 to 3.45 µg/mL) |  |
| CC(C)C[C@@H]1C[C@@H]2CN(Cc3ccc(C(F)(F)F)cc3)CC[C@@]23OC[C@H](C(C)C)N3C1=O [(3S,6R,7aR,11aR)-6-isobutyl-3-isopropyl-9-[[4-(trifluoromethyl)phenyl]methyl]-2,3,6,7,7a,8,10,11-octahydrooxazolo[2,3-j][1,6]naphthyridin-5-one] |  | > 10 |  |
| CC[C@@H]1C[C@@H]2CN(Cc3ccc(C(F)(F)F)cc3)CC[C@@]23OC[C@H](C(C)C)N3C1=O [(3S,6R,7aR,11aR)-6-ethyl-3-isopropyl-9-[[4-(trifluoromethyl)phenyl]methyl]-2,3,6,7,7a,8,10,11-octahydrooxazolo[2,3-j][1,6]naphthyridin-5-one] |  | < 1 |  |
